Test results reported in patent US20240208992A1, “MACROCYCLES AS CFTR MODULATORS” (Idorsia Pharmaceuticals Ltd, priority 2021, published 2024).

Target: human F508del-CFTR (Homo sapiens, UniProt P13569, DEL508-508)
Assay: F508del-CFTR cell surface expression (corrector activity), DiscoveRx ß-galactosidase complementation chemiluminescence assay in recombinant U2OS cell line;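 note: U2OS cells co-expressing ProLink-tagged F508del-CFTR and a membrane-anchored enzyme acceptor, where more surface CFTR restores β-galactosidase activity measured by chemiluminescence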
Settings: U2OS cells, 16h compound incubation; for EC50: EC50, F508del-CFTR cell surface expression, geomean of several measurements; for Emax: U2OS, in relation to the Emax of the corrector lumacaftor (=100%), arithmetic mean

Sequence of human F508del-CFTR (P13569 with tags, fused parts or gaps DEL508-508): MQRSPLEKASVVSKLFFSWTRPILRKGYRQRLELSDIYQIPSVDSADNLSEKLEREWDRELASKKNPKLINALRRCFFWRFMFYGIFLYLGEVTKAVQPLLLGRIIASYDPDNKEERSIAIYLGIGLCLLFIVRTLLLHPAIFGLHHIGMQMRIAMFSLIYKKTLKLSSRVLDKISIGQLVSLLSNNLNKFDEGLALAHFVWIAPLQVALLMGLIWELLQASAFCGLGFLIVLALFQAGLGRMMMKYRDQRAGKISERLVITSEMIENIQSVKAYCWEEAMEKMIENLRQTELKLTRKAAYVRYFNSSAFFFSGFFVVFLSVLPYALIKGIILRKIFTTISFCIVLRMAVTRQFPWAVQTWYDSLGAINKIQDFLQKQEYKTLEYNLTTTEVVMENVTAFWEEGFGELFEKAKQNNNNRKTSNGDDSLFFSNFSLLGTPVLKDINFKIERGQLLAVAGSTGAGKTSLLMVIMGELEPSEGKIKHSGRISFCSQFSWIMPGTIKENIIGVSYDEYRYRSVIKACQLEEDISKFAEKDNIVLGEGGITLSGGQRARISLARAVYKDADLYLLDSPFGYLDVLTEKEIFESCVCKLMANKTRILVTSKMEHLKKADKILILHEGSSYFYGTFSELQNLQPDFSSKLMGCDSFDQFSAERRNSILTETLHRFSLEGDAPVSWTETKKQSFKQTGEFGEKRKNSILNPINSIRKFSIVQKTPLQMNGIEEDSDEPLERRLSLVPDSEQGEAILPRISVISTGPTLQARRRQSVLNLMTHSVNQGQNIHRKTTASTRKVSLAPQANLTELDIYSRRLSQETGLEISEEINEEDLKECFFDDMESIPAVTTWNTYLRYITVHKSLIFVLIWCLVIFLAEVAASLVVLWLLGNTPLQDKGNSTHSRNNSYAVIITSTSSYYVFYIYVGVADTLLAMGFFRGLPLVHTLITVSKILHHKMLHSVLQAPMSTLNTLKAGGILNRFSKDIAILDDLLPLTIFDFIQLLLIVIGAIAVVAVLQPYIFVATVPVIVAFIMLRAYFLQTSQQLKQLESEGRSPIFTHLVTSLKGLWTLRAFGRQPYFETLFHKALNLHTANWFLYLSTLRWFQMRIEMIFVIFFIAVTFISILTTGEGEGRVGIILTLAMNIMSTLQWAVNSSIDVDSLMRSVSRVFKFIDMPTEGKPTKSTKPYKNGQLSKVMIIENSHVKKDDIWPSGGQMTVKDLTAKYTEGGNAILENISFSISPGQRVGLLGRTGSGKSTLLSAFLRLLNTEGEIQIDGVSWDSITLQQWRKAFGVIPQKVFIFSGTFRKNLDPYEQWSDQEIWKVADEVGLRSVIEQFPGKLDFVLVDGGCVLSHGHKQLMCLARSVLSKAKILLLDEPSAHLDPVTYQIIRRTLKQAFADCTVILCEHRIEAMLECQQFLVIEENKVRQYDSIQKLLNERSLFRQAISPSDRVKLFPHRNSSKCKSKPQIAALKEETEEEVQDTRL

Row | Compound | EC50 | Emax
1 | COc1cc(CCNC(=O)[C@@H]2CC(=O)N(C)[C@@H](CC(C)C)C(=O)N(C)[C@H](CC(F)F)C(=O)N[C@H](Cc3ccccc3)COc3ccc4cnc(C)cc4c3C(=O)N2)on1 [Example 931, (3S,7S,10R,13R)-13-benzyl-10-(2,2-difluoroethyl)-7-isobutyl-N-(2-(3-methoxyisoxazol-5-yl)ethyl)-6,9,20-trimethyl-1,5,8,11-tetraoxo-1,2,3,4,5,6,7,8,9,10,11,12,13,14-tetradecahydro-[1]oxa[4,7,10,14]tetraazacycloheptadecino[16,17-f]isoquinoline-3-carboxamide] | 298 nM | 507%
2 | COc1noc(CCNC(=O)[C@@H]2CC(=O)N(C)[C@@H](CC(C)C)C(=O)N(C)[C@H](CC(F)F)C(=O)N[C@H](Cc3ccccc3)COc3ccc4cnc(C)cc4c3C(=O)N2)n1 [Example 932, (3S,7S,10R,13R)-13-benzyl-10-(2,2-difluoroethyl)-7-isobutyl-N-(2-(3-methoxy-1,2,4-oxadiazol-5-yl)ethyl)-6,9,20-trimethyl-1,5,8,11-tetraoxo-1,2,3,4,5,6,7,8,9,10,11,12,13,14-tetradecahydro-[1]oxa[4,7,10,14]tetraazacycloheptadecino[16,17-f]isoquinoline-3-carboxamide] | 373 nM | 491%
3 | Cc1cc2c3c(ccc2cn1)OC[C@@H](Cc1ccccc1)NC(=O)[C@@H](CC(F)F)N(C)C(=O)[C@H](CC(C)C)N(C)C(=O)C[C@@H](C(=O)NCCn1nnc(C2CC2)n1)NC3=O [Example 933, (3S,7S,10R,13R)-13-benzyl-N-(2-(5-cyclopropyl-2H-tetrazol-2-yl)ethyl)-10-(2,2-difluoroethyl)-7-isobutyl-6,9,20-trimethyl-1,5,8,11-tetraoxo-1,2,3,4,5,6,7,8,9,10,11,12,13,14-tetradecahydro-[1]oxa[4,7,10,14]tetraazacycloheptadecino[16,17-f]isoquinoline-3-carboxamide] | 399 nM | 485%
4 | COc1noc(CCNC(=O)[C@@H]2CC(=O)N(C)[C@@H](CC(C)C)C(=O)N(C)[C@H](Cc3nc(C(F)(F)F)no3)C(=O)N[C@H](Cc3ccccc3)COc3ccc4ncc(F)cc4c3C(=O)N2)n1 [Example 934, (3S,7S,10R,13R)-13-benzyl-20-fluoro-7-isobutyl-N-(2-(3-methoxy-1,2,4-oxadiazol-5-yl)ethyl)-6,9-dimethyl-1,5,8,11-tetraoxo-10-((3-(trifluoromethyl)-1,2,4-oxadiazol-5-yl)methyl)-1,2,3,4,5,6,7,8,9,10,11,12,13,14-tetradecahydro-[1]oxa[4,7,10,14]tetraazacycloheptadecino[16,17-f]quinoline-3-carboxamide] | 37 nM | 528%
5 | Cc1cc2c(c3cccnc13)C(=O)N[C@H](C(=O)NCCc1noc(C3CC3)n1)CC(=O)N(C)[C@@H](CC(C)C)C(=O)N(C)[C@H](Cc1nc(C(F)(F)F)no1)C(=O)N[C@H](Cc1ccccc1)CO2 [Example 935, (3S,7S,10R,13R)-13-benzyl-N-(2-(5-cyclopropyl-1,2,4-oxadiazol-3-yl)ethyl)-7-isobutyl-6,9,17-trimethyl-1,5,8,11-tetraoxo-10-((3-(trifluoromethyl)-1,2,4-oxadiazol-5-yl)methyl)-1,2,3,4,5,6,7,8,9,10,11,12,13,14-tetradecahydro-[1]oxa[4,7,10,14]tetraazacycloheptadecino[16,17-f]quinoline-3-carboxamide] | 24 nM | 496%
6 | Cc1cc2c(c3cccnc13)C(=O)N[C@H](C(=O)NCCc1nc(C3CC3)no1)CC(=O)N(C)[C@@H](CC(C)C)C(=O)N(C)[C@H](Cc1nc(C(F)(F)F)no1)C(=O)N[C@H](Cc1ccccc1)CO2 [Example 936, (3S,7S,10R,13R)-13-benzyl-N-(2-(3-cyclopropyl-1,2,4-oxadiazol-5-yl)ethyl)-7-isobutyl-6,9,17-trimethyl-1,5,8,11-tetraoxo-10-((3-(trifluoromethyl)-1,2,4-oxadiazol-5-yl)methyl)-1,2,3,4,5,6,7,8,9,10,11,12,13,14-tetradecahydro-[1]oxa[4,7,10,14]tetraazacycloheptadecino[16,17-f]quinoline-3-carboxamide] | 26 nM | 469%
